Where two headings read alike, the source gives them in different places.
How the values were obtained:
[1] = target: T1, human recombinant adrenergic α2B receptor (Homo sapiens, UniProt P18089); test: Adrenergic α2B radioligand binding ([3H]Rauwolscine); settings: read-out: Adrenergic (1 μM) α2B, percent inhibition of specific binding
T1 construct: expressed in transfected cells; host or cells: CHO-K1 cells
T1 sequence (P18089 1-450): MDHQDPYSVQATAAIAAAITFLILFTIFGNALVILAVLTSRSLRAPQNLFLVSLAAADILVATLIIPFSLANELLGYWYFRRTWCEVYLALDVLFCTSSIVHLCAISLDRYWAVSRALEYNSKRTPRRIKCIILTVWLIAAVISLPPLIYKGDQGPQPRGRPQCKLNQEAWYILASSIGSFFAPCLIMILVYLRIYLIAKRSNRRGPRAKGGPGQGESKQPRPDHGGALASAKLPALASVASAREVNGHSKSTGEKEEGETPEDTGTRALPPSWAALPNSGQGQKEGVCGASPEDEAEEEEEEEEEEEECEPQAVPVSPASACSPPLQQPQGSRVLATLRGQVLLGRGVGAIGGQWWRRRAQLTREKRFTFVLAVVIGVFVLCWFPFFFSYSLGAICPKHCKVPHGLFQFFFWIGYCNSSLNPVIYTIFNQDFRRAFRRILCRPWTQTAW
Method: To evaluate in radioligand binding assays the activity of compounds of the invention, human recombinant adrenergic α2B receptor expressed in Chinese hamster ovary (CHO-K1) cells (Uhlen S et al. Eur. J. Pharmacol. 343(1):93, 1998) in a modified Tris-HCl buffer (50 mM Tris-HCl, pH 7.4, 12.5 mM MgCl2, 1 mM EDTA, 0.2% BSA) was used. Compounds of the invention were incubated with 2.5 nM [3H]Rauwolscine for 60 minutes at 25° C. Non-specific binding was estimated in the presence of 10 μM Prozosin. Receptor proteins were filtered and washed, the filters were then counted to determine [^3H]Rauwolscine specifically bound. Compounds were screened at 1 μM or lower, using 1% DMSO as vehicle. Biochemical assay results are presented as the percent inhibition of specific binding in Table 6.

[2] = target: T2, human recombinant serotonin (5-Hydroxytryptamine) 5-HT2A receptor (Homo sapiens, UniProt P28223); test: Serotonin 5-HT2A radioligand binding ([3H]Ketanserin); settings: read-out: Serotonin (1 μM) 5-HT2A, percent inhibition of specific binding
T2 construct: expressed in transfected cells; host or cells: CHO-K1 cells
T2 sequence (P28223 whole entry): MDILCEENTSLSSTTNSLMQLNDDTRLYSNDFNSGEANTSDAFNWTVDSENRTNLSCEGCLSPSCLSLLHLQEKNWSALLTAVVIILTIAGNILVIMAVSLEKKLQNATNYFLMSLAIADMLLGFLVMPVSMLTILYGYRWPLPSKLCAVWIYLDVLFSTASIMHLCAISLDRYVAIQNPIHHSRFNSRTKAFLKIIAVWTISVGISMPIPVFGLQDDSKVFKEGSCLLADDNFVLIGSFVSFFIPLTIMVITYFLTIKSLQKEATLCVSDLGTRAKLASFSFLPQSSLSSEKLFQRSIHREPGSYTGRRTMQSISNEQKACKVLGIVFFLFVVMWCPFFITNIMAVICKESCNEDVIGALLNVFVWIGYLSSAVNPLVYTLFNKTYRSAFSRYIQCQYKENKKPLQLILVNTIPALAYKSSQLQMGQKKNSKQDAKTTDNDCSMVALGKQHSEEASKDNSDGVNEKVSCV
Method: To evaluate in radioligand binding assays the activity of compounds of the invention, human recombinant serotonin (5-Hydroxytryptamine) 5-HT2A receptor expressed in Chinese hamster ovary (CHO-K1) cells (Bonhaus, D. W. et al. Br. J. Pharmacol. 115:622, 1995; Saucier, C. and Albert, P. R., J. Neurochem. 68:1998, 1997) in a 50 mM Tris-HCl buffer, pH 7.4, was used. Compounds of the invention were incubated with 0.5 nM [^3H]Ketanserin for 60 minutes at 25° C. Non-specific binding was estimated in the presence of 1 μM Mianserin. Receptor proteins were filtered and washed, the filters were then counted to determine [^3H] Ketanserin specifically bound. Compounds were screened at 1 μM or lower, using 1% DMSO as vehicle. Biochemical assay results are presented as the percent inhibition of specific binding in Table 7.

[3] = system: rat central imidazoline I2 receptor; test: Central imidazoline I2 radioligand binding ([3H]Idazoxan); settings: compound at 1 μM; Wistar Rat cerebral cortex
Method: To evaluate in radioligand binding assays the activity of compounds of the invention, rat central imidazoline I2 receptor obtained from Wistar Rat cerebral cortex (Brown, C. M. et al., Br. J. Pharmacol. 99:803, 1990) in a modified Tris-HCl buffer (50 mM Tris-HCl buffer, pH 7.4, 0.5 mM EDTA) was used. Compounds of the invention were incubated with 2 nM [^3H]Idazoxan for 30 minutes at 25° C. Non-specific binding was estimated in the presence of 1 μM Idazoxan. Receptor proteins were filtered and washed, the filters were then counted to determine [^3H]Idazoxan specifically bound. Compounds were screened at 1 μM or lower, using 1% DMSO as vehicle. Compounds of the invention were tested in this biochemical assay and percent inhibition of specific binding was determined. Biochemical assay results are presented as the percent inhibition of specific binding in Table 5.

Structure (SMILES) | inhibition at 1 µM ([1]; compound at 1 μM, CHO-K1 cells) [%] | inhibition at 1 µM ([2]; compound at 1 μM, CHO-K1 cells) [%] | inhibition at 1 µM [1] [%] | inhibition at 1 µM [2] [%] | Imidazoline I2 Central (1 μM), percent inhibition of specific binding [3] [%]
CCOC(=O)Cn1c2c(c3cc(C)ccc31)CN(C)CC2 [CD57, ethyl 2-(1,2,3,4-tetrahydro-2,8-dimethylpyrido[4,3-b]indol-5-yl)acetate] | 65 | 92 |  |  | 
CN1CCc2c(c3cc(Cl)ccc3n2CCCO)C1 [CD87, 3-(8-chloro-2-methyl-3,4-dihydro-1H-pyrido[4,3-b]indol-5(2H)-yl)propan-1-ol] | 103 | 66 |  |  | 
CN1CCc2c(c3cc(Cl)ccc3n2CCBr)C1 [CD88, 5-(2-bromoethyl)-8-chloro-2-methyl-2,3,4,5-tetrahydro-1H-pyrido[4,3-b]indole] |  |  | 104 | 98 | 
CN1CCc2c(c3cc(Cl)ccc3n2CCO)C1 [CD89, 2-(8-chloro-2-methyl-3,4-dihydro-1H-pyrido[4,3-b]indol-5(2H)-yl)ethanol] | 100 | 70 |  |  | 
Cc1ccc2c(c1)c1c(n2CCO)CCN(C)C1 [CD90, 2-(2,8-dimethyl-3,4-dihydro-1H-pyrido[4,3-b]indol-5(2H)-yl)ethanol] | 61 | 58 |  |  | 
Cc1ccc2c(c1)c1c(n2CCBr)CCN(C)C1 [CD91, 5-(2-bromoethyl)-2,8-dimethyl-2,3,4,5-tetrahydro-1H-pyrido[4,3-b]indole] | 102 | 96 |  |  | 
Cc1ccc2c(c1)c1c(n2CCC#N)CCN(C)C1 [CD92, 3-(2,8-dimethyl-3,4-dihydro-1H-pyrido[4,3-b]indol-5(2H)-yl)propanenitrile] | 94 | 67 |  |  | 
CN1CCc2c(c3cc(Cl)ccc3n2CCC#N)C1 [CD94, 3-(8-chloro-2-methyl-3,4-dihydro-1H-pyrido[4,3-b]indol-5(2H)-yl)propanenitrile] | 86 | 60 |  |  | 
CN1CCc2c(c3cc(Cl)ccc3n2CC(=O)OC(C)(C)C)C1 [Compound 12, tert-butyl 2-(8-chloro-1,2,3,4-tetrahydro-2-methylpyrido[4,3-b]indol-5-yl)acetate] | 45 | 81 |  |  | 
CN1CCc2c(c3cc(Cl)ccc3n2CC(=O)OCC2CCCCC2)C1 [Compound 14, cyclohexylmethyl 2-(8-chloro-1,2,3,4-tetrahydro-2-methylpyrido[4,3-b]indol-5-yl)acetate] | 103 | 103 |  |  | 
CC(C)OC(=O)CCn1c2c(c3cc(Cl)ccc31)CN(C)CC2 [Compound 17, isopropyl 3-(8-chloro-1,2,3,4-tetrahydro-2-methylpyrido[4,3-b]indol-5-yl)propanoate] | 106 | 84 |  |  | 
CN1CCc2c(c3cc(Cl)ccc3n2CCC(=O)OCc2ccccc2)C1 [Compound 19, benzyl 3-(8-chloro-1,2,3,4-tetrahydro-2-methylpyrido[4,3-b]indol-5-yl)propanoate] | 106 | 95 |  |  | 
CN1CCc2c(c3cc(Cl)ccc3n2CCC(=O)OCC2CCCCC2)C1 [Compound 20, cyclohexylmethyl 3-(8-chloro-1,2,3,4-tetrahydro-2-methylpyrido[4,3-b]indol-5-yl)propanoate] | 103 | 102 |  |  | 
CN1CCc2c(c3cc(Cl)ccc3n2CCC(=O)OC2CCCC2)C1 [Compound 21, cyclopentyl 3-(8-chloro-1,2,3,4-tetrahydro-2-methylpyrido[4,3-b]indol-5-yl)propanoate] | 103 | 98 |  |  | 
Cc1ccc2c(c1)c1c(n2CC(=O)NC(C)(C)C)CCN(C)C1 [Compound 24, N-tert-butyl-2-(1,2,3,4-tetrahydro-2,8-dimethylpyrido[4,3-b]indol-5-yl)acetamide] | 13 | 9 |  |  | 
Cc1ccc2c(c1)c1c(n2CC(=O)NCC2CCCCC2)CCN(C)C1 [Compound 26, N-(cyclohexylmethyl)-2-(1,2,3,4-tetrahydro-2,8-dimethylpyrido[4,3-b]indol-5-yl)acetamide] | 45 | 89 |  |  | 
Cc1ccc2c(c1)c1c(n2CCC(=O)NC(C)(C)C)CCN(C)C1 [Compound 28] | 85 | 17 |  |  | 
Cc1ccc2c(c1)c1c(n2CCC(=O)Nc2ccccc2)CCN(C)C1 [Compound 29] | 79 | 96 |  |  | 
Cc1ccc2c(c1)c1c(n2CCC(N)=O)CCN(C)C1 [Compound 46, 3-(1,2,3,4-tetrahydro-2,8-dimethylpyrido[4,3-b]indol-5-yl)propanamide] | 46 | 33 |  |  | 
Cc1ccc2c(c1)c1c(n2CCC(=O)NC(C)C)CCN(C)C1 [Compound 53] | 86 | 39 |  |  | 
Cc1ccc2c(c1)c1c(n2CCNC(=O)C2CCCCC2)CCN(C)C1 [Compound 62, N-(2-(1,2,3,4-tetrahydro-2,8-dimethylpyrido[4,3-b]indol-5-yl)ethyl)cyclohexanecarboxamide] | 92 |  |  |  | 42
Cc1ccc2c(c1)c1c(n2CCNC(=O)c2ccc(F)cc2Cl)CCN(C)C1 [Compound 63, 2-chloro-4-fluoro-N-(2-(1,2,3,4-tetrahydro-2,8-dimethylpyrido[4,3-b]indol-5-yl)ethyl)benzamide] | 98 |  |  |  | 41
Cc1ccc2c(c1)c1c(n2CC(N)=O)CCN(C)C1 [Compound 64, 2-(1,2,3,4-tetrahydro-2,8-dimethylpyrido[4,3-b]indol-5-yl)acetamide] | 40 |  |  |  | 16
Cc1ccc2c(c1)c1c(n2CCNC(=O)C2CCNCC2)CCN(C)C1 [Compound 65, N-(2-(1,2,3,4-tetrahydro-2,8-dimethylpyrido[4,3-b]indol-5-yl)ethyl)piperidine-4-carboxamide] | 12 |  |  |  | 23
Cc1ccc2c(c1)c1c(n2CCNC(=O)c2ccc(F)cc2)CCN(C)C1 [Compound 66, 4-fluoro-N-(2-(1,2,3,4-tetrahydro-2,8-dimethylpyrido[4,3-b]indol-5-yl)ethyl)benzamide] | 107 | 98 |  |  | 
CN1CCc2c(c3cc(Cl)ccc3n2CCC(N)=O)C1 [Compound 67, 3-(8-chloro-1,2,3,4-tetrahydro-2-methylpyrido[4,3-b]indol-5-yl)propanamide] | 72 | 55 |  |  | 
Cc1ccc2c(c1)c1c(n2CCNC(=O)C2CCCC2)CCN(C)C1 [Compound 68, N-(2-(1,2,3,4-tetrahydro-2,8-dimethylpyrido[4,3-b]indol-5-yl)ethyl)cyclopentanecarboxamide] | 84 | 77 |  |  | 
Cc1ccc2c(c1)c1c(n2CCNC(=O)c2ccncc2C)CCN(C)C1 [Compound 69, N-(2-(1,2,3,4-tetrahydro-2,8-dimethylpyrido[4,3-b]indol-5-yl)ethyl)-3-methylpyridine-4-carboxamide] | 39 | 30 |  |  | 
